Reference: patent US11208411B2, “Compositions and methods for treating parasitic diseases” (THE REGENTS OF THE UNIVERSITY OF CALIFORNIA, priority 2016, dated 2021)
Like-named read-outs stand apart in the source and are kept apart here.

Legend:
Src = Src (Homo sapiens (Human), UniProt P12931); test: Src kinase inhibition; assay type: biochemical; parameters: Src % Inhibition: concentration or dose not given beside the values
[1] = Stability in rat liver microsomes; assay type: in vitro ADME; conditions: 1 mM NADPH, read-out: Microsome Half-Life
[2] = system: T. gondii type I RH strain, 2F clone; test: Inhibition of parasite growth in vitro in HFF monolayers (beta-Gal readout); assay type: cell-based
TgCDPK1 = TgCDPK1 (Toxoplasma gondii, UniProt Q9BJF5); test: TgCDPK1 kinase assay, syntide-2 peptide-based ELISA; assay type: biochemical
In vivo pharmacokinetics = conditions: iv, 3 mg/kg
[3] = Toxoplasma gondii, 72 h; read-out: Parasite Growth EC50

Chain of Src (P12931 whole entry, looked up): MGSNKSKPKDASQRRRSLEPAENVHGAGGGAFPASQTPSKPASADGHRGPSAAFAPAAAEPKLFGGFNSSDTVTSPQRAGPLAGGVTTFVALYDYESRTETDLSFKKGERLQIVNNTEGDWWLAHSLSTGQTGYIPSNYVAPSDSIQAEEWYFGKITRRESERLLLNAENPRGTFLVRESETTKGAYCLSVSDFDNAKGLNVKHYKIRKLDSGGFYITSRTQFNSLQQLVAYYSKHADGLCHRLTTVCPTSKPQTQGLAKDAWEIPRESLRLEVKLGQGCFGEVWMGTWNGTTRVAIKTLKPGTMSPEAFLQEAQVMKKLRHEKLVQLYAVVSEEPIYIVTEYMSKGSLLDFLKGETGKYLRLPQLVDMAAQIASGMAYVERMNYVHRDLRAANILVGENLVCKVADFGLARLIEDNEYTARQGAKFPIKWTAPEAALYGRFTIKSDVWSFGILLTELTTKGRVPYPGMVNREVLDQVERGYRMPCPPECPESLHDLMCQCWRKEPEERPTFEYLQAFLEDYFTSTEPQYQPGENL
Chain of TgCDPK1 (Q9BJF5 1-507): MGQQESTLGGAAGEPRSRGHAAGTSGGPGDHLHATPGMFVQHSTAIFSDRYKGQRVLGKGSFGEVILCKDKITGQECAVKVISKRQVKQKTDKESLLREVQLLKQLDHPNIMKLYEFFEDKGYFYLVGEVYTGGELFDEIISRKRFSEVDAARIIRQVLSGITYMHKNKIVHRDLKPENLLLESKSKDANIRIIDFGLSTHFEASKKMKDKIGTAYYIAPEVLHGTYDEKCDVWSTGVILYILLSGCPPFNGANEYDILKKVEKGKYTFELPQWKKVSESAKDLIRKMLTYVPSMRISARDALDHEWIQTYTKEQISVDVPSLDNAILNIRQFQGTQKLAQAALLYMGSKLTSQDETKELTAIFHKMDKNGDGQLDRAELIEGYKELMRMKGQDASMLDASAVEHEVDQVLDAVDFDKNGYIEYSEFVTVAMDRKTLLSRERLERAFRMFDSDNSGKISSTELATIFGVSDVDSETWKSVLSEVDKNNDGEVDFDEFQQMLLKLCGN

Compound	Src % Inhibition (Src) [%]	further results
Nc1ncnc2c1c(Oc1cccc(Cl)c1)nn2CC1CCNC(=O)C1 (stereo not shown) [FUR7-36, 4-((4-amino-3-(3-chlorophenoxy)-1H-pyrazolo[3,4-d]pyrimidin-1-yl)methyl)piperidin-2-one]	96.13	
Nc1ncnc2c1c(Cc1c[nH]c3ccccc13)nn2CC1CCNCC1 [FUR6-95, 3-((1H-indol-3-yl)methyl)-1-(piperidin-4-ylmethyl)-1H-pyrazolo[3,4-d]pyrimidin-4-amine]	92.70	half-life [1]: > 60 min; EC50 [2, 3]: > 10000 nM; IC50 (TgCDPK1): 23.9 nM; IC50 (Src): > 10000 nM
Nc1ncnc2c1c(Oc1cccc(Cl)c1)nn2CC1CNC1 [FUR6-12, 1-(azetidin-3-ylmethyl)-3-(3-chlorophenoxy)-1H-pyrazolo[3,4-d]pyrimidin-4-amine]	91.81	
Nc1ncnc2c1c(Oc1cccc(Cl)c1)nn2CC1CCNCC1 [GXJ237, 3-(3-chlorophenoxy)-1-(piperidin-4-ylmethyl)-1H-pyrazolo[3,4-d]pyrimidin-4-amine]	87.87	
CC(C)(C)n1nc(Oc2cccc(Cl)c2)c2c(N)ncnc21 [GXJ184, 1-(tert-butyl)-3-(3-chlorophenoxy)-1H-pyrazolo[3,4-d]pyrimidin-4-amine]	79.94	Co (initial conc.) (In vivo pharmacokinetics): 5471.09 ng/mL
Cc1cccc(Oc2nn(C(C)(C)C)c3ncnc(N)c23)c1 [GXJ176, 1-(tert-butyl)-3-(m-tolyloxy)-1H-pyrazolo[3,4-d]pyrimidin-4-amine]	84.24	
CC(C)(C)n1nc(Cc2cccc(Cl)c2)c2c(N)ncnc21 [Compound 3CIB-PP1, 1-(tert-butyl)-3-(3-chlorobenzyl)-1H-pyrazolo[3,4-d]pyrimidin-4-amine, reference compound]	18.48	
Nc1ncnc2c1c(Oc1cccc(Cl)c1)nn2CC1CCNCC1(F)F (stereo not shown) [FUR7-27, 3-(3-chlorophenoxy)-1-((3,3-difluoropiperidin-4-yl)methyl)-1H-pyrazolo[3,4-d]pyrimidin-4-amine]	87.87	
CC(C)(C)n1nc(Nc2cccc(Cl)c2)c2c(N)ncnc21 [LZH118, 1-(tert-butyl)-N^3-(3-chlorophenyl)-1H-pyrazolo[3,4-d]pyrimidine-3,4-diamine]	21.86	
Nc1ncnc2c1c(Oc1cccc(Cl)c1)nn2Cc1ccncc1 [FUR6-6, 3-(3-chlorophenoxy)-1-(pyridin-4-ylmethyl)-1H-pyrazolo[3,4-d]pyrimidin-4-amine]	93.91	
Nc1ncnc2c1c(Oc1cccc(Cl)c1)nn2CC1CCCNC1 (stereo not shown) [FUR6-11, 3-(3-chlorophenoxy)-1-(piperidin-3-ylmethyl)-1H-pyrazolo[3,4-d]pyrimidin-4-amine]	90.05	
CC(C)(C)n1nc(Oc2cccc(Br)c2)c2c(N)ncnc21 [GXJ177, 3-(3-bromophenoxy)-1-(tert-butyl)-1H-pyrazolo[3,4-d]pyrimidin-4-amine]	73.35	
Nc1ncnc2c1c(Oc1cccc(Cl)c1)nn2CC1(C(F)(F)F)CC1 [FUR7-2, 3-(3-chlorophenoxy)-1-((1-(trifluoromethyl)cyclopropyl)methyl)-1H-pyrazolo[3,4-d]pyrimidin-4-amine]	91.63	
Cc1cccc(Sc2nn(C(C)(C)C)c3ncnc(N)c23)c1 [FUR7-68, 1-(tert-butyl)-3-(m-tolylthio)-1H-pyrazolo[3,4-d]pyrimidin-4-amine]	64.39	half-life [1]: 1 min; EC50 [2, 3]: 376 nM; IC50 (TgCDPK1): 22.9 nM; IC50 (Src): > 10000 nM
Nc1ncnc2c1c(Oc1cccc(Cl)c1)nn2CC1CCOCC1 [FUR7-89, 3-(3-chlorophenoxy)-1-((tetrahydro-2H-pyran-4-yl)methyl)-1H-pyrazolo[3,4-d]pyrimidin-4-amine]	77.33	
CC(C)(C)n1nc(Sc2c[nH]c3ccccc23)c2c(N)ncnc21 [FUR6-159, 3-((1H-indol-3-yl)thio)-1-(tert-butyl)-1H-pyrazolo[3,4-d]pyrimidin-4-amine]	97.66	half-life [1]: 2.6 min; EC50 [2, 3]: > 10000 nM; IC50 (TgCDPK1): 202 nM; IC50 (Src): > 10000 nM
Nc1ncnc2c1c(Sc1cccc(Cl)c1)cn2CC1CCNCC1 [FUR 6-139, 5-((3-chlorophenyl)thio)-7-(piperidin-4-ylmethyl)-7H-pyrrolo[2,3-d]pyrimidin-4-amine]	97.49	
Nc1ncnc2c1c(Cc1cccc(Cl)c1)nn2CC1CCNCC1 [FUR6-157, 3-(3-chlorobenzyl)-1-(piperidin-4-ylmethyl)-1H-pyrazolo[3,4-d]pyrimidin-4-amine]	87.11	

Compound	Src % Inhibition (Src) [%]	further results
Nc1ncnc2c1c(Cc1cc(F)cc(F)c1)nn2CC1CCNCC1 [MLC468, 3-(3,5-difluorobenzyl)-1-(piperidin-4-ylmethyl)-1H-pyrazolo[3,4-d]pyrimidin-4-amine]	94.97	
COc1cccc(Oc2nn(C(C)(C)C)c3ncnc(N)c23)c1 [GXJ230, 1-(tert-butyl)-3-(3-methoxyphenoxy)-1H-pyrazolo[3,4-d]pyrimidin-4-amine]	77.53	
CC(C)(C)n1nc(Cc2coc3ccccc23)c2c(N)ncnc21 [LJQ-145, 3-(benzofuran-3-ylmethyl)-1-(tert-butyl)-1H-pyrazolo[3,4-d]pyrimidin-4-amine]	36.04	half-life [1]: 1.7 min; EC50 [2, 3]: 2030 nM; IC50 (TgCDPK1): 23.7 nM
CC(C)(C)n1nc(Oc2cc(F)cc(F)c2)c2c(N)ncnc21 [GXJ229, 1-(tert-butyl)-3-(3,5-difluorophenoxy)-1H-pyrazolo[3,4-d]pyrimidin-4-amine]	87.48	
CC(C)(C)n1nc(Sc2cccc(Cl)c2)c2c(N)ncnc21 [GXJ186, 1-(tert-butyl)-3-((3-chlorophenyl)thio)-1H-pyrazolo[3,4-d]pyrimidin-4-amine]	72.84	
CC(C)(C)n1nc(Cc2c[nH]c3ccccc23)c2c(N)ncnc21 [LJQ-138, 3-((1H-indol-3-yl)methyl)-1-(tert-butyl)-1H-pyrazolo[3,4-d]pyrimidin-4-amine]	74.94	half-life [1]: 2 min; EC50 [2, 3]: 177 nM; IC50 (TgCDPK1): 12.3 nM; IC50 (Src): > 10000 nM
Nc1ncnc2c1c(Sc1cccc(Cl)c1)nn2CC1CCNCC1(F)F (stereo not shown) [FUR 7-76]	76.47	
Nc1ncnc2c1c(Cc1c[nH]c3ccccc13)nn2CC1(C(F)(F)F)CC1 [WXT-2, 3-((1H-indol-3-yl)methyl)-1-((1-(trifluoromethyl)cyclopropyl)methyl)-1H-pyrazolo[3,4-d]pyrimidin-4-amine]	96.00	half-life [1]: 4.7 min; EC50 ([2]; Toxoplasma gondii, 72 h, read-out: Parasite Growth EC50): 206 nM; IC50 (TgCDPK1): 38.1 nM; IC50 (Src): > 10000 nM
Nc1ncnc2c1c(Sc1cccc(Cl)c1)nn2CC1CCNCC1 [FUR 5-56]	102.82	
Nc1ncnc2c1c(Oc1cccc(Cl)c1)nn2CC1CCNC1 (stereo not shown) [FUR6-13, 3-(3-chlorophenoxy)-1-(pyrrolidin-3-ylmethyl)-H-pyrazolo[3,4-d]pyrimidin-4-amine]	99.50	
Cc1cccc(Sc2nn(CC3CCNCC3)c3ncnc(N)c23)c1 [FUR7-77, 1-(piperidin-4-ylmethyl)-3-(m-tolylthio)-1H-pyrazolo[3,4-d]pyrimidin-4-amine]	80.21	
CC(C)(C)n1nc(Oc2cccc(C(F)(F)F)c2)c2c(N)ncnc21 [GXJ178, 1-(tert-butyl)-3-(3-(trifluoromethyl)phenoxy)-1H-pyrazolo[3,4-d]pyrimidin-4-amine]	79.53	
CC(C)(C)n1nc(Cc2csc3ccccc23)c2c(N)ncnc21 [CZ43, 3-(benzo[b]thiophen-3-ylmethyl)-1-(tert-butyl)-1H-pyrazolo[3,4-d]pyrimidin-4-amine]	28.21	half-life [1]: 2.5 min; EC50 [2, 3]: 135 nM; IC50 (TgCDPK1): 7.45 nM; IC50 (Src): 14 nM
Nc1ncnc2c1c(Nc1cccc(Cl)c1)nn2CC1CCNCC1 [GXJ276, N^3-(3-chlorophenyl)-1-(piperidin-4-ylmethyl)-1H-pyrazolo[3,4-d]pyrimidine-3,4-diamine]	24.50	
Nc1ncnc2c1c(Sc1c[nH]c3ccccc13)nn2CC1CCNCC1 [FUR 5-57, 3-((1H-indol-3-yl)thio)-1-(piperidin-4-ylmethyl)-1H-pyrazolo[3,4-d]pyrimidin-4-amine]		half-life [1]: 12 min
CN1CCC(Cn2nc(Oc3cccc(Cl)c3)c3c(N)ncnc32)CC1 [FUR7-30, 3-(3-chlorophenoxy)-1-((1-methylpiperidin-4-yl)methyl)-1H-pyrazolo[3,4-d]pyrimidin-4-amine]	96.94	
CC(C)(C)n1nc(Cc2cc(F)cc(F)c2)c2c(N)ncnc21 [CZ75, 1-(tert-butyl)-3-(3,5-difluorobenzyl)-1H-pyrazolo[3,4-d]pyrimidin-4-amine]	91.31	
Nc1ncnc2c1c(Oc1ccc(F)c(Cl)c1)nn2CC1CCNCC1 [GXJ261, 3-(3-chloro-4-fluorophenoxy)-1-(piperidin-4-ylmethyl)-1H-pyrazolo[3,4-d]pyrimidin-4-amine]	78.16	
